Reference: patent US10351915B2 (Berg LLC, priority 2009, dated 2019)

Key:
SKBr3 = assay: Nexin assay for apoptosis (flow cytometry); format: cell-based, human; details: 50 μM or 100 μM Q10, 24 hours
Description: (§1) The 7AAD dye will enter into cells with permeabilized cell membranes; primarily those cells that are in late apoptosis. Annexin-V-PE is a dye that binds to Phosphotidyl serine, which is exposed on the outer surface of the plasma membrane in early apoptotic cells. The Nexin reagent thus can be used to differentiate between different populations of apoptotic cells in a flow cytometer.

SCC cells [1] = assay: Real-time PCR Apoptosis Array; format: cell-based
Description: (§2) The control cells were untreated cells.
RNA was quantified by measuring Optical Density at 260 nm.

PC-3 = assay: Nexin assay for apoptosis (flow cytometry); format: cell-based; details: 50 μM and 100 μM Q10, 24 hours
Description: as §1

SK-MEL28 = assay: Nexin assay for apoptosis (flow cytometry); format: cell-based; details: 50 μM and 100 μM Q10, 24 hours
Description: as §1

MCF-7 = assay: Nexin assay for apoptosis (flow cytometry); format: cell-based; details: 50 μM and 100 μM Q10, 24 hours
Description: as §1

PaCa2 = assay: Nexin assay for apoptosis (flow cytometry); format: cell-based; details: 50 μM and 100 μM Q10, 24 hours
Description: as §1

[2] = cited from earlier work
HDFa cells [3] = assay: Oxygen consumption rate (OCR), SeaHorse XF analyzer; format: cell-based, human; details: normal cells (HDFa)
Description: (§3) (SeaHorse Biosciences Inc, North Billerica, Mass.).
(§4) In this experiment, the OCR and extracellular acidification rate (ECAR) in normal cells lines were obtained in the presence and absence of CoQ10 to determine baseline values. It was observed that in its native nutrient environment, the basal OCR rates in normal cells lines are different, and are usually a function of the physiological roles of the cells in the body.
FIGS. 37 and 38 below describes the OCR in HDFa and HASMC cells grown in physiologically normal glucose (about 4.6 mM) and high glucose (hyperglycemic) conditions.

SCC cells [4] = assay: Real-time PCR Heat Shock Protein Array; format: cell-based
Description: as §2
Heat Shock Arrays were run for SCC cells and the data of regulated genes is summarized below in Table 13.

[5] = system: Pyruvate Dehydrogenase beta (PDH-E1); assay: Western blot, Pyruvate Dehydrogenase Beta levels; format: cell-based, human
Method: The pyruvate kinase blots were stripped by incubating for 30 minutes with methanol, followed by two 10 minute washes with TBS-T, then 30 minutes of incubation with Stripping buffer at 50 deg C., and followed by two washes with 100 ml or more of TBS-T for 30′ each. The 2 blots were scanned in laser scanner to check for complete stripping. After making sure stripping of the antibody and the ECF reagent has worked, the blots were activated with methanol for 5 seconds, washed with water for 5 minutes, and TBST for 15 minutes. The blots are blocked for 1 hour with 5% blocking reagent in TBS-T at room temperature and then washed 3 times with TBS-T (1×-15′; 2×5′ each) and probed with the antibody for Pyruvate Dehydrogenase in 5% BSA (ABNOVA catalog # H00005162-M03) at 1:500 dilutions) overnight at 4 deg C. with shaking. After the overnight incubation with primary antibody for Pyruvate Dehydrogenase, the membranes were washed 3 times with TBS-T (1×-15′; 2×5′ each) and probed with the secondary antibody (antimouse; 1:10,000 dilution) for 1 h on the orbital tilting shaker at room temperature. […]
The levels of LDH and PDH were determined by probing the blots successively with primary antibodies for LDH and PDH, essentially as described above. […]

HDFa cells [6] = assay: Extracellular acidification rate (ECAR), SeaHorse XF analyzer; format: cell-based, human
Description: as §3, §4
Table 127 below describes the ECAR values (mpH/min) in HDFa cells in the presence or absence of CoQ10 under normoxic and hypoxic conditions at 5.5 mM and 22 mM glucose.

In the case of `COC1=C(OC)C(=O)C(C/C=C(\C)CC/C=C(\C)CC/C=C(\C)CC/C=C(\C)CC/C=C(\C)CC/C=C(\C)CC/C=C(\C)CC/C=C(\C)CC/C=C(\C)CCC=C(C)C)=C(C)C1=O` [Q10, Coenzyme Q10], the “early and late apoptosis” value (SKBr3) is reported as “did not show any significant increases of early and late apoptosis”, the “Regulation (mRNA)” value (SCC cells [1]; 100 μM Q10, at 6 hours) is reported as “Down regulated at 6 hours” and the “Regulation (mRNA)” value (SCC cells [1]; 100 μM Q10, at 24 hours, BAX mRNA) is reported as “Up regulated at 24 hours”. The “Regulation (mRNA)” value (SCC cells [1]; 100 μM Q10, at 24 hours, BNIP3 mRNA) was “Down regulated at 24 hours”, the “early and late apoptotic population” value (PC-3) was “an increase in both early and late apoptotic population” and the apoptotic population (SK-MEL28) was “an increase only in early apoptotic population”. The apoptotic population (MCF-7) was “an increase only in early apoptotic population”, the “increase in both early and late apoptotic cells” value (PaCa2) was 5-10 % of gated cells and the solubility in water [2] was “insoluble in water”. For the same compound, the OCR (HDFa cells [3]) was “influenced OCR”, the “DNAJA1 Regulation” value (SCC cells [4]; 100 μM Q10, at 6 hours) was “Up regulated at 6” and the “DNAJB5 Regulation” value (SCC cells [4]; 100 μM Q10, at 6 hours) was “Down regulated”. The “DNAJB13 Regulation” value (SCC cells [4]; 100 μM Q10, at 6 hours) was “Down regulated”, the “DNAJC4 Regulation” value (SCC cells [4]; 100 μM Q10, at 6 hours) was “Down regulated” and the “DNAJC5B Regulation” value (SCC cells [4]; 100 μM Q10, at 6 hours) was “Down regulated”. For the same compound, the “DNAJC12 Regulation” value (SCC cells [4]; 100 μM Q10, at 6 hours) was “Down regulated”, the “HSPA8 Regulation” value (SCC cells [4]; 100 μM Q10, at 6 hours) was “Up regulated at 6” and the “HSPH1 Regulation” value (SCC cells [4]; 100 μM Q10, at 6 hours) was “Up regulated at 6”. The “CCT6B Regulation” value (SCC cells [4]; 100 μM Q10, at 24 hours) was “Down regulated”, the “Pyruvate Dehydrogenase Beta Normalized Volume (48 h)” value ([5]; HepG2, 5g glucose, 48 h, amount 50) was 123 and the “Pyruvate Dehydrogenase Beta Normalized Volume (24 h)” value ([5]; HepG2, 22G glucose, 24 h, amount 100) was 340. For the same compound, the ECAR (HDFa cells [6]; high glucose hypoxic conditions) was “lowering of elevated ECAR” and the ECAR values (HDFa cells [6]; normoxic and hypoxic, 5.5 mM and 22 mM glucose) was “minimal influence on ECAR values”.
